# “Also recorded” adds a separate entry of the source. Where two headings read alike, the source gives them in different places.
# Assays:
# [1] = molecular target: T1, hCB1R (Homo sapiens, UniProt P21554); format: binding
# T1 construct: expressed in transfected cells; host or cells: CHO cells stably expressing hCB1R
# [2] = molecular target: T2, hCB2R (Homo sapiens, UniProt P34972); assay: biochemical; format: binding
# T2 construct: expressed in transfected cells; host or cells: HEK cells stably expressing hCB2R
# [3] = test system: HT-22 cells; format: cell-based, murine
# [4] = molecular target: hAChE (Homo sapiens, UniProt P22303); assay: biochemical; format: biochemical
# [5] = test system: Aβ25-35-induced learning impairments in mice; details: mouse, ip; for dose that significantly prevented Aβ25-35-induced learning impairments / most effective dose (completely prevented Aβ25-35 impairments in both tests): in vivo
# [6] = molecular target: eeAChE (Electrophorus electricus, UniProt O42275); assay: biochemical
# [7] = molecular target: hAChE-induced Aβ40 aggregation (Homo sapiens, UniProt P22303); assay: biochemical; format: biochemical; details: for inhibition at 100 µM: [I] = 100 µM, Aβ40/hAChE ratio 100/1, mean ± SEM, read-out: % inhibition Aβ aggregation AChE-induced
# [8] = molecular target: hBChE (Homo sapiens, UniProt P06276); assay: biochemical; format: biochemical; details: for IC50: means of at least three determinations, read-out: IC50 hBChE
# [9] = molecular target: Aβ42 (Homo sapiens, UniProt P05067); assay: Aβ42 self-aggregation, thioflavin-T fluorescence assay; format: biochemical; details: for inhibition at 50 µM: 50 µM inhibitor and 50 µM Aβ42, mean ± SEM, read-out: % inhibition Aβ aggregation self-induced; for inhibition of Aβ42 self-aggregation (in words): 1/1 ratio with Aβ42
# [10] = molecular target: T2, hCB2R; format: cell-based
# [11] = test system: murine microglial cell line N9; assay: Microglia activation: LPS-activated N9 cells, M1/M2 markers (Griess reaction, western blot); format: cell-based
# [12] = hAChE recombinant expressed, read-out: IC50 AChE (hAChE)
# [13] = eeAChE from electric eel, read-out: IC50 AChE (eeAChE)
# [14] = N9 cells, 100 ng/mL LPS, 1-5 µM compound, 24 h, M1 marker
# [15] = N9 cells, 100 ng/mL LPS, 1-5 µM compound, 24 h, M2 marker
# Chain of eeAChE (O42275 24-633): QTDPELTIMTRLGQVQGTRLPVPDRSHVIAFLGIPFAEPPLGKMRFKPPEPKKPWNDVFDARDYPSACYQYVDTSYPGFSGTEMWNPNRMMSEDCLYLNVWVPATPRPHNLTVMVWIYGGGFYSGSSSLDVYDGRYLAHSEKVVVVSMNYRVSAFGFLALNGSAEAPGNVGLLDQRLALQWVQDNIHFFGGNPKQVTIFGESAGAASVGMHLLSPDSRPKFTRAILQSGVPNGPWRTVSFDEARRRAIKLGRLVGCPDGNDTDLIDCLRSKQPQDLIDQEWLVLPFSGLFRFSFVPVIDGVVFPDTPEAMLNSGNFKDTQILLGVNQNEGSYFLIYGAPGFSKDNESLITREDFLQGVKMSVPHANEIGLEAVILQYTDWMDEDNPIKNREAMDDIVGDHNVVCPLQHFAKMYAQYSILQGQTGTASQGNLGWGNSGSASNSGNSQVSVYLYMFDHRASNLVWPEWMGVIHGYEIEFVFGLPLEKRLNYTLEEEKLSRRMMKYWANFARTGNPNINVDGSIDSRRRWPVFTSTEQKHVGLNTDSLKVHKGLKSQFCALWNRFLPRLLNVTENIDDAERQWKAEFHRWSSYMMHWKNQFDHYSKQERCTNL
# T2 sequence (P34972 whole entry): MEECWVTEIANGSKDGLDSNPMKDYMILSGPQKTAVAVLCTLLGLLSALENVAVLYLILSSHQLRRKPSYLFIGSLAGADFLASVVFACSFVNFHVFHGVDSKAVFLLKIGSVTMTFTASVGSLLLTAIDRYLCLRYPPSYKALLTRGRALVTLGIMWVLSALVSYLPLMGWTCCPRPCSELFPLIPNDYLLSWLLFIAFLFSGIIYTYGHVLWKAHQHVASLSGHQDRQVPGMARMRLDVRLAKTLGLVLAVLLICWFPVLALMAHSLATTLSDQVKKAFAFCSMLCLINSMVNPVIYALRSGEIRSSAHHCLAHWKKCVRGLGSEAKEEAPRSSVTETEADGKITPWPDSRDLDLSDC
# T1 sequence (P21554 whole entry): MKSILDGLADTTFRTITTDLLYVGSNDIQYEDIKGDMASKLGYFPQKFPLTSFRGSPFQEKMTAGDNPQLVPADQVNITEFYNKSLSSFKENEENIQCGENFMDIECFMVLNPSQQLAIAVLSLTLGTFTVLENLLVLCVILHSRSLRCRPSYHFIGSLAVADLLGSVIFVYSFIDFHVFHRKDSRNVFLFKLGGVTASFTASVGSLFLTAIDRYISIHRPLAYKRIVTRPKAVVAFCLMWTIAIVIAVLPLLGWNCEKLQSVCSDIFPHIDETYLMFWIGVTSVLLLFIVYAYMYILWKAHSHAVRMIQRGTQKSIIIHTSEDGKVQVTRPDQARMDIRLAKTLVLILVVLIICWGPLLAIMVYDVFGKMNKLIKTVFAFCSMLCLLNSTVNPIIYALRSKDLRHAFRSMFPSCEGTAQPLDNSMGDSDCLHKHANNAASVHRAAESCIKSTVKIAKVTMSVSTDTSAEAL
# Chain of hBChE (P06276 29-602): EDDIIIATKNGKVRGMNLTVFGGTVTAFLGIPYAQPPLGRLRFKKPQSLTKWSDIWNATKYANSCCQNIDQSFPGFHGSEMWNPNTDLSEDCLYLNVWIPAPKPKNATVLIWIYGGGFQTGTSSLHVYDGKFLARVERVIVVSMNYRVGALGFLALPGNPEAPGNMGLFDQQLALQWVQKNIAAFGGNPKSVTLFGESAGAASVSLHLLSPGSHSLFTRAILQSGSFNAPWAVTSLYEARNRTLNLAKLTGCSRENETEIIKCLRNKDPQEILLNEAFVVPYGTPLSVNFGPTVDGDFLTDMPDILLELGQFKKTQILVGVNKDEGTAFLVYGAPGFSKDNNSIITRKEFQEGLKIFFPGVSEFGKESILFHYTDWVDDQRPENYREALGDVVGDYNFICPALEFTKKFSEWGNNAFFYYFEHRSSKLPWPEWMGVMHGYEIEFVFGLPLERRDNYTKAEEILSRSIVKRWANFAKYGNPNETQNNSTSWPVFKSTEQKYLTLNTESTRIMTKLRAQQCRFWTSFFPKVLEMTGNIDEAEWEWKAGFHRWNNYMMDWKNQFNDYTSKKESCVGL
# Chain of hAChE (P22303 32-614): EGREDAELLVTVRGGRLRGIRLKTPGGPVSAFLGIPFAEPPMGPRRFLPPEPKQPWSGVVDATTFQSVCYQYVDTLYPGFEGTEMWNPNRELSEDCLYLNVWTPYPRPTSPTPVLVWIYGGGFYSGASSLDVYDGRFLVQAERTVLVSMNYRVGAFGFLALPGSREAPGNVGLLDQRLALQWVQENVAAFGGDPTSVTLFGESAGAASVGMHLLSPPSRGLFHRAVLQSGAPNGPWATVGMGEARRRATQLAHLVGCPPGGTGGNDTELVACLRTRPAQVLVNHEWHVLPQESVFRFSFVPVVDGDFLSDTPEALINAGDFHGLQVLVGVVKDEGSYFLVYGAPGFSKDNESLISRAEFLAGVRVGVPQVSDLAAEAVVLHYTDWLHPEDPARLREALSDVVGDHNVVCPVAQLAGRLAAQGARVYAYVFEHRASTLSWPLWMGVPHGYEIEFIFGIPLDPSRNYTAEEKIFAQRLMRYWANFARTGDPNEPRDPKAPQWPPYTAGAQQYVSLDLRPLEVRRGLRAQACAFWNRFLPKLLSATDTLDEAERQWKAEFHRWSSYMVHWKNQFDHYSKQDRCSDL
# Chain of hAChE-induced Aβ40 aggregation (P22303 32-614): as above
# Chain of Aβ42 (P05067 672-713): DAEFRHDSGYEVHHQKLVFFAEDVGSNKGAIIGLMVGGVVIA
Compound,"[^3H]CP 55,940 displ. @10 µM hCB1R [1] [%]",Ki [2] [µM],Ki ([2]; read-out: Ki hCB2R) [µM],neuroprotective behavior (in words) [3],dose that significantly prevented Aβ25-35-induced learning impairments [5] [mg/kg],inhibition of AChE-induced Aβ40 aggregation (in words) [7],inhibition at 100 µM [7] [%],pIC50 ± SD AChE (hAChE) ([4]; hAChE recombinant expressed),"IC50 [4, 12] [µM]",IC50 ([8]; hBChE from human serum) [µM],inhibition at 50 µM [9] [%],inhibition of Aβ42 self-aggregation (in words) [9],most effective dose (completely prevented Aβ25-35 impairments in both tests) [5] [mg/kg],dose given for the high in vivo efficacy (conclusion) [5] [mg/kg],"IC50 [6, 13] [µM]",further results
"CCOc1ccc(Cc2nc3cc(C(=O)N(CC)CC)ccc3n2CCCCCNc2c3c(nc4ccccc24)CCCC3)cc1 [3d, 2-(4-Ethoxybenzyl)-N,N-diethyl-1-(5-((1,2,3,4-tetrahydroacridin-9-yl)amino)pentyl)-1H-benzo[d]imidazole-5-carboxamide]",21,7.94,7.3,none,0.3,–,–,–,–,–,–,–,–,–,–,pIC50 ± SD AChE (hAChE) [4]: 199 nM^b 641 nM^c (6.2 ± 0.1); IC50 ([4]; IC50 AChE (hAChE)): 0.641 µM; IC50 [6]: 0.199 µM
"CCOc1ccc(Cc2nc3cc(C(=O)NCCSSCCNc4c5c(nc6ccccc46)CCCC5)ccc3n2CCC(C)C)cc1 [compound 8, 2-(4-Ethoxybenzyl)-1-isopentyl-N-(2-((2-((1,2,3,4-tetrahydroacridin-9-yl)amino)ethyl)disulfaneyl)ethyl)-1H-benzo[d]imidazole-5-carboxamide]",45,6.31,6.8,neuroprotection comparable to the positive control quercetin; also recorded: showed neuroprotection,0.3,not able to significantly inhibit,5 ± 2.6,7.9 ± 0.1,0.0134,0.077,83.4 ± 6.4,strongly inhibited,0.3,0.1,0.044,affinity towards hCB2R (in words) [2]: no significant effect on affinity; pIC50 ± SD hBChE ([8]; hBChE from human serum): 7.1 ± 0.1
"CCOc1ccc(Cc2nc3cc(C(=O)N(CC)CC)ccc3n2CCCCCCNc2c3c(nc4ccccc24)CCCC3)cc1 [compound 3e, 2-(4-Ethoxybenzyl)-N,N-diethyl-1-(6-((1,2,3,4-tetrahydroacridin-9-yl)amino)hexyl)-1H-benzo[d]imidazole-5-carboxamide]",17,–,–,low neuroprotective behavior; also recorded: showed neuroprotection,0.3,pronounced inhibition; also recorded: significantly reduce,62.9 ± 5.4,7.1 ± 0.1,0.0861,0.0019,81.5 ± 2,pronounced inhibition; also recorded: strongly inhibited,0.3,0.1,0.0005,"MIF gene expression [10]: reduced; STAT-3 gene expression [10]: reduced; behavior at the hCB2R [10]: maintained their agonist behavior; inhibitory potency towards hBChE compared to tacrine ([8]; compared to tacrine): increased inhibitory potency; immunomodulatory effect ([11]; LPS-activated microglial cells): immunomodulatory effect; NO release / nitrite accumulation ([11]; N9 cells, 100 ng/mL LPS, 1-5 µM compound, 24 h): reduced; also recorded: strongly reduces; IL1β release [11, 14]: significantly decrease; also recorded: strongly reduces; iNOS expression [11, 14]: significantly decrease; also recorded: strongly reduces; TGFβ2 expression [11, 15]: not reduced; also recorded: no parallel change; TREM2 expression [11, 15]: not reduced; also recorded: no parallel change"

# — patent publication EP3771713A1 (priority 2019, dated 2021)
